PubChem BioAssay AID330 (DTP/NCI, 2004)
Several values for one entry are separate records, joined by “and”; a condition that tells them apart may be missing. Identical values can stand only once. Toxic doses and inconclusive results are not listed. Rule for the calls: active = survival T/C of 150% or more; inactive = T/C below 125% in these data.

System: P388 leukemia ip, CD2F1 mice, survival T/C
Assay: NCI In Vivo Anticancer Drug Screen. Data for tumor model P388 Leukemia (intraperitoneal) in CD2F1 (CDF1) mice
Settings: endpoint: median survival time, higher = longer survival
Outline: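 Mice carrying the transplanted tumor received test compound or vehicle. Survival was recorded in each group, and the value is the treated-group measurement divided by that of the vehicle-treated control group.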

[1] = dose: 60.0 mg/kg/injection, schedule: Q01DX005 (ip), vehicle: saline with Tween-80
[2] = dose: 120.0 mg/kg/injection, schedule: Q01DX005 (ip), vehicle: saline with Tween-80
[3] = dose: 240.0 mg/kg/injection, schedule: Q01DX005 (ip), vehicle: saline with Tween-80
[4] = dose: 12.5 mg/kg/injection, schedule: Q01DX005 (ip), vehicle: Klucel (hydroxypropylcellulose) (HPC)
[5] = dose: 25.0 mg/kg/injection, schedule: Q01DX005 (ip), vehicle: Klucel (hydroxypropylcellulose) (HPC)
[6] = dose: 50.0 mg/kg/injection, schedule: Q01DX005 (ip), vehicle: saline with Tween-80
[7] = dose: 100.0 mg/kg/injection, schedule: Q01DX005 (ip), vehicle: saline with Tween-80
[8] = dose: 200.0 mg/kg/injection, schedule: Q01DX005 (ip), vehicle: saline with Tween-80
[9] = dose: 100.0 mg/kg/injection, schedule: Q01DX009 (ip), vehicle: saline with Tween-80
[10] = dose: 200.0 mg/kg/injection, schedule: Q01DX009 (ip), vehicle: saline with Tween-80
[11] = dose: 25.0 mg/kg/injection, schedule: Q01DX009 (ip), vehicle: saline
[12] = dose: 50.0 mg/kg/injection, schedule: Q01DX009 (ip), vehicle: saline
[13] = dose: 60.0 mg/kg/injection, schedule: Q01DX005 (ip), vehicle: Klucel (hydroxypropylcellulose) (HPC)
[14] = dose: 120.0 mg/kg/injection, schedule: Q01DX005 (ip), vehicle: Klucel (hydroxypropylcellulose) (HPC)

Measured: T/C

COC(=O)CC1C(C)(C)C(=O)C2CC3=C4CC(=O)OC(c5ccoc5)C4(C)CCC3C1(C)C2=O (configuration not stated)
inactive: [1] 97 % of control | [2] 92 % of control | [3] 89 % of control

CC1(C)N=C(N)N=C(N)N1CCCCc1ccccc1
inactive: dose: 6.25 mg/kg/injection, schedule: Q01DX005 (ip), vehicle: Klucel (hydroxypropylcellulose) (HPC) 110 % of control | [4] 114 % of control | [5] 118 % of control

CC(=O)Oc1ccccc1C(=O)OC1CC(C)CCC1C(C)C (configuration not stated)
inactive: [4] 99 % of control | [5] 106 % of control | dose: 50.0 mg/kg/injection, schedule: Q01DX005 (ip), vehicle: Klucel (hydroxypropylcellulose) (HPC) 88 % of control and 94 % of control | dose: 200.0 mg/kg/injection, schedule: Q01DX005 (ip), vehicle: Klucel (hydroxypropylcellulose) (HPC) 103 % of control

OCCC1CCN(CC/C=C2/c3ccc(F)cc3Sc3ccc(C(F)(F)F)cc32)CC1
inactive: dose: 25.0 micrograms/kg/injection, schedule: Q01DX001 (ip), vehicle: saline 99 % of control | dose: 50.0 micrograms/kg/injection, schedule: Q01DX001 (ip), vehicle: saline 114 % of control and 96 % of control | dose: 100.0 micrograms/kg/injection, schedule: Q01DX001 (ip), vehicle: saline 117 % of control

CCN(CC)CCCNCc1cc(-c2ccccc2)nc2ccccc12
inactive: [6] 101 % of control | [7] 100 % of control | [8] 95 % of control

COc1ccc(/C(C#N)=C/c2ccccc2)cc1
inactive: dose: 6.25 mg/kg/injection, schedule: Q01DX009 (ip), vehicle: suspension in saline 99 % of control and 103 % of control and 107 % of control | dose: 12.5 mg/kg/injection, schedule: Q01DX009 (ip), vehicle: suspension in saline 100 % of control and 108 % of control and 114 % of control | dose: 25.0 mg/kg/injection, schedule: Q01DX009 (ip), vehicle: saline with Tween-80 86 % of control | dose: 25.0 mg/kg/injection, schedule: Q01DX009 (ip), vehicle: suspension in saline 100 % of control and 92 % of control and 98 % of control | dose: 50.0 mg/kg/injection, schedule: Q01DX009 (ip), vehicle: saline with Tween-80 91 % of control | dose: 50.0 mg/kg/injection, schedule: Q01DX009 (ip), vehicle: suspension in saline 107 % of control and 124 % of control | [9] 91 % of control | [10] 101 % of control

O=C1CC2(CCCC2)C(=O)N1c1ccccc1O
inactive: [11] 103 % of control | dose: 50.0 mg/kg/injection, schedule: Q01DX009 (ip), vehicle: Klucel (hydroxypropylcellulose) (HPC) 118 % of control and 94 % of control | [12] 96 % of control | dose: 100.0 mg/kg/injection, schedule: Q01DX009 (ip), vehicle: Klucel (hydroxypropylcellulose) (HPC) 100 % of control | dose: 100.0 mg/kg/injection, schedule: Q01DX009 (ip), vehicle: saline 96 % of control | dose: 200.0 mg/kg/injection, schedule: Q01DX009 (ip), vehicle: Klucel (hydroxypropylcellulose) (HPC) 100 % of control | dose: 200.0 mg/kg/injection, schedule: Q01DX009 (ip), vehicle: saline 96 % of control

COC(=O)c1cc(Cl)ccc1OCC(O)CNc1ccc(Cl)cc1C(=O)c1ccccc1 (configuration not stated)
inactive: [1] 92 % of control | [2] 100 % of control | [3] 90 % of control

Cc1cc[c]([Bi]([c]2ccc(C)cc2)[c]2ccc(C)cc2)cc1
inactive: [13] 105 % of control | [14] 96 % of control

COC(=O)/C=C\C1(CC(C)C)N=C(c2ccccc2)OC1=O (configuration not stated)
inactive: [6] 104 % of control | [7] 95 % of control | [8] 104 % of control

CCOCCC(=O)NCC(=O)NC1C(CO)OC(Nc2ncnc3nc[nH]c23)C(O)C1O (configuration not stated)
inactive: dose: 3.12 mg/kg/injection, schedule: Q01DX009 (ip), vehicle: water 98 % of control | dose: 6.25 mg/kg/injection, schedule: Q01DX009 (ip), vehicle: water 88 % of control | dose: 12.5 mg/kg/injection, schedule: Q01DX009 (ip), vehicle: water 98 % of control | dose: 25.0 mg/kg/injection, schedule: Q01DX009 (ip), vehicle: water 106 % of control | dose: 50.0 mg/kg/injection, schedule: Q01DX009 (ip), vehicle: water 101 % of control

CCOC(=O)c1nc2ccccc2c(=O)[nH]1
inactive: [9] 102 % of control | [10] 108 % of control | dose: 400.0 mg/kg/injection, schedule: Q01DX009 (ip), vehicle: saline with Tween-80 100 % of control

O=[N+]([O-])c1ccc(N2CCOCC2)c2c1no[n+]2[O-]
inactive: dose: 8.0 mg/kg/injection, schedule: Q04DX003 (ip), vehicle: suspension in saline 98 % of control | dose: 16.0 mg/kg/injection, schedule: Q04DX003 (ip), vehicle: suspension in saline 105 % of control | dose: 32.0 mg/kg/injection, schedule: Q04DX003 (ip), vehicle: suspension in saline 99 % of control | dose: 64.0 mg/kg/injection, schedule: Q04DX003 (ip), vehicle: suspension in saline 123 % of control

COc1ccc(C)cc1NC(=S)C#N
inactive: [1] 98 % of control | [2] 106 % of control

COc1ccc2ccc3c(c2c1)C(=O)CC3
inactive: dose: 12.5 mg/kg/injection, schedule: Q01DX009 (ip), vehicle: distilled water + Tween-80 101 % of control | dose: 25.0 mg/kg/injection, schedule: Q01DX009 (ip), vehicle: distilled water + Tween-80 98 % of control | dose: 50.0 mg/kg/injection, schedule: Q01DX009 (ip), vehicle: distilled water + Tween-80 107 % of control | dose: 100.0 mg/kg/injection, schedule: Q01DX009 (ip), vehicle: distilled water + Tween-80 98 % of control | dose: 200.0 mg/kg/injection, schedule: Q01DX009 (ip), vehicle: distilled water + Tween-80 98 % of control

CCOc1cc2c(cc1OC)c[n+](C)c1c3cc(OC)c(OC)cc3ccc21
inactive: dose: 10.0 mg/kg/injection, schedule: Q01DX009 (ip), vehicle: water 122 % of control

Cc1cccc2c(SCCCCCCSc3c4ccccc4nc4c(C)cccc34)c3ccccc3nc12
inactive: [13] 90 % of control | [14] 92 % of control | dose: 240.0 mg/kg/injection, schedule: Q01DX005 (ip), vehicle: Klucel (hydroxypropylcellulose) (HPC) 91 % of control

COc1ccc(C2CC(=O)C(C(=O)OC3CCCCC3)C2c2ccc(OC)cc2)cc1 (configuration not stated)
inactive: dose: 12.5 mg/kg/injection, schedule: Q01DX001 (ip), vehicle: Klucel (hydroxypropylcellulose) (HPC) 92 % of control | dose: 25.0 mg/kg/injection, schedule: Q01DX001 (ip), vehicle: Klucel (hydroxypropylcellulose) (HPC) 93 % of control | dose: 50.0 mg/kg/injection, schedule: Q01DX001 (ip), vehicle: Klucel (hydroxypropylcellulose) (HPC) 86 % of control

CC(=O)N1CN(C(C)=O)CN(C(C)=O)C1
inactive: dose: 60.0 mg/kg/injection, schedule: Q01DX005 (ip), vehicle: saline 94 % of control | dose: 120.0 mg/kg/injection, schedule: Q01DX005 (ip), vehicle: saline 94 % of control | dose: 240.0 mg/kg/injection, schedule: Q01DX005 (ip), vehicle: saline 100 % of control

CC(NCCc1ccccc1)C1CCOC1=O (configuration not stated)
inactive: dose: 6.25 mg/kg/injection, schedule: Q01DX009 (ip), vehicle: saline 98 % of control | dose: 12.5 mg/kg/injection, schedule: Q01DX009 (ip), vehicle: saline 97 % of control and 102 % of control | [11] 103 % of control and 109 % of control | [12] 100 % of control and 97 % of control
